Assay results: ChEMBL document CHEMBL1201862, “PubChem BioAssay data set” (2004)
Calls of active or inactive are those of the source.

How the values were obtained:
Assay type in all cases: functional
[1] = target: T1, Apoptotic protease-activating factor 1 (Homo sapiens, UniProt O14727)
T1 sequence (O14727 whole entry): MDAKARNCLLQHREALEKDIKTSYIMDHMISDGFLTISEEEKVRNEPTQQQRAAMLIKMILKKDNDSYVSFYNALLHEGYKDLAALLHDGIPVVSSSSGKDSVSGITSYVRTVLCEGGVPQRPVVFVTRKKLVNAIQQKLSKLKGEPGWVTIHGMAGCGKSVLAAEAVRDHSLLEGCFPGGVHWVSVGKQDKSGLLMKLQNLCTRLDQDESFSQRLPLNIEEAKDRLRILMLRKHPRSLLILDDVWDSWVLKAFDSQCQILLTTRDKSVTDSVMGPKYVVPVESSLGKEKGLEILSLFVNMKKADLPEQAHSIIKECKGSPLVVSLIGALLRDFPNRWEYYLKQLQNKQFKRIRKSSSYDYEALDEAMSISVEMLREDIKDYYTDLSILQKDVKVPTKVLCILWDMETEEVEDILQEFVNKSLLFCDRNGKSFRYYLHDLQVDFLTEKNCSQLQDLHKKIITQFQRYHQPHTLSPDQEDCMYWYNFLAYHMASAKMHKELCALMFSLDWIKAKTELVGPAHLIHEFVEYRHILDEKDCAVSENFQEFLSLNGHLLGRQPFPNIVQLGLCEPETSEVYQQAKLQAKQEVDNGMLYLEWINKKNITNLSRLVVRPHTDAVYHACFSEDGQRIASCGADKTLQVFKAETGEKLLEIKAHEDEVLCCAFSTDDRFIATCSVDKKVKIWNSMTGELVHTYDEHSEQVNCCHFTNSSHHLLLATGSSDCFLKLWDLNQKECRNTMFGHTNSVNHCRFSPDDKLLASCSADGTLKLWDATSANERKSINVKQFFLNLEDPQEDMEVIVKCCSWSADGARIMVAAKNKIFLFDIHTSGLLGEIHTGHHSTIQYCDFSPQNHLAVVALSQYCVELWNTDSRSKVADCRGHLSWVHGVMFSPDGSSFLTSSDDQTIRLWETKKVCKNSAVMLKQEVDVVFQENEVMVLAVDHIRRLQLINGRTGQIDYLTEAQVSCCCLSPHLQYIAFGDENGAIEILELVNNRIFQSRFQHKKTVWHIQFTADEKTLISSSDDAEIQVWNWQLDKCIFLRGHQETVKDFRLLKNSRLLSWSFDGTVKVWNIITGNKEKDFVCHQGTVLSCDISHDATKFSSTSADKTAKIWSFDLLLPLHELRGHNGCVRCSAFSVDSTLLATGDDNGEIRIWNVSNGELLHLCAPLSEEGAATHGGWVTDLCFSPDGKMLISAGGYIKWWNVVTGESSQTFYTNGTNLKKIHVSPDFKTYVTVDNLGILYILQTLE

[2] = target: T2, Protein RecA (Mycobacterium tuberculosis, UniProt P9WHJ3); assay: Fluorescence Cell-Free Homogeneous Dose Retest to Identify Inhibitors of RecA-Intein Splicing Activity. [Related pubchem assays (depositor defined):AID2097, AID2223, AID489010, AID492950]
T2 sequence (P9WHJ3 whole entry): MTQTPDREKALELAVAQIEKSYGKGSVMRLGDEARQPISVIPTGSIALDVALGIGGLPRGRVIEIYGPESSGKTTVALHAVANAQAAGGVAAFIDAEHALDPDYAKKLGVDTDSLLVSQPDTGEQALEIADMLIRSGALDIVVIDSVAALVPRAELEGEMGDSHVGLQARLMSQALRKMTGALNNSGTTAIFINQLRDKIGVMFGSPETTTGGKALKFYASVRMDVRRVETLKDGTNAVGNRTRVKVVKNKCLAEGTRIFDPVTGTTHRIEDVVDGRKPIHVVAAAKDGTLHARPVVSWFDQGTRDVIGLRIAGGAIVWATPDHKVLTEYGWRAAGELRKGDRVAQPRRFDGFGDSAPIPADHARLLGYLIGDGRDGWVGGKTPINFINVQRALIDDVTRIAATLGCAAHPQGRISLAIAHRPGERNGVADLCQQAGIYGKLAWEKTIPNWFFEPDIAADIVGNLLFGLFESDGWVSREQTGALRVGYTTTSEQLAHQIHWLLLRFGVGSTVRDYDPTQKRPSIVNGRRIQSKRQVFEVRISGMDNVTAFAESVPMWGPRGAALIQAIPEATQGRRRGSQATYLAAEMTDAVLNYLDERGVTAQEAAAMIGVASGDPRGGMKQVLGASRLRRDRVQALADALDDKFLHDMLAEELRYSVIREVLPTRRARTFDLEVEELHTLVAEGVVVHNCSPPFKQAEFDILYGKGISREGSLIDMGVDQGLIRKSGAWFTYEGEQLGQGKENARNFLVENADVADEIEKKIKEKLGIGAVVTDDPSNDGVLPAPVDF

[3] = target: T3, Replicative DNA helicase DnaB (Mycobacterium tuberculosis, UniProt P9WMR3); assay: DnaB intein splicing inhibitors, dose response, biochemical, cell-free fluorescence (AID 449749)
T3 sequence (P9WMR3 whole entry): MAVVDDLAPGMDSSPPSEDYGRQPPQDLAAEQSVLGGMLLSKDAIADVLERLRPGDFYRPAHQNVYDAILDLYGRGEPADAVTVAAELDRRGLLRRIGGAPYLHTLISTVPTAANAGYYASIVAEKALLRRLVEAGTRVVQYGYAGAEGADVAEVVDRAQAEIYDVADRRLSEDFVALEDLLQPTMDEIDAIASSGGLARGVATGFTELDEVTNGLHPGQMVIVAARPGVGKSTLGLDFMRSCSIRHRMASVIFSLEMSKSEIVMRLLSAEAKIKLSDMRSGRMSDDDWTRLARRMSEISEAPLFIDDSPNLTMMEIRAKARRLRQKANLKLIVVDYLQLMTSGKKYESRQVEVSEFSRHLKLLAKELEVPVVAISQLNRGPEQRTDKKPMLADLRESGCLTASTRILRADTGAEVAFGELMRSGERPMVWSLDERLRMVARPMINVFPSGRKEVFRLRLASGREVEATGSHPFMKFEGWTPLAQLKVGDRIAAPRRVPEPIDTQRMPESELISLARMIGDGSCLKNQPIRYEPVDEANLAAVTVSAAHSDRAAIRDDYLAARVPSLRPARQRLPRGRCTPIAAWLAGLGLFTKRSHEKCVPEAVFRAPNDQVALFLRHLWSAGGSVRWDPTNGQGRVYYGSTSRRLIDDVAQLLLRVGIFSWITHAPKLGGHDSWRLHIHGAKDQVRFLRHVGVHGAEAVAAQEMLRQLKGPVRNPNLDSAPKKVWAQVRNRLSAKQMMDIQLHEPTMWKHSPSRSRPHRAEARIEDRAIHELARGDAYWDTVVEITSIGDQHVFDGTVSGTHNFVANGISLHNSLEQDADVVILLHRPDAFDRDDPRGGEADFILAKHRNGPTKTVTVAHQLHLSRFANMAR

[4] = target: Genome polyprotein (dengue virus type 2, UniProt P29990); assay: flavivirus cap methylation enzyme inhibition – biochemical, confirmation dose response, primary screen (AID 588689)
Genome polyprotein, sequence (P29990 2492-3391 limits assumed): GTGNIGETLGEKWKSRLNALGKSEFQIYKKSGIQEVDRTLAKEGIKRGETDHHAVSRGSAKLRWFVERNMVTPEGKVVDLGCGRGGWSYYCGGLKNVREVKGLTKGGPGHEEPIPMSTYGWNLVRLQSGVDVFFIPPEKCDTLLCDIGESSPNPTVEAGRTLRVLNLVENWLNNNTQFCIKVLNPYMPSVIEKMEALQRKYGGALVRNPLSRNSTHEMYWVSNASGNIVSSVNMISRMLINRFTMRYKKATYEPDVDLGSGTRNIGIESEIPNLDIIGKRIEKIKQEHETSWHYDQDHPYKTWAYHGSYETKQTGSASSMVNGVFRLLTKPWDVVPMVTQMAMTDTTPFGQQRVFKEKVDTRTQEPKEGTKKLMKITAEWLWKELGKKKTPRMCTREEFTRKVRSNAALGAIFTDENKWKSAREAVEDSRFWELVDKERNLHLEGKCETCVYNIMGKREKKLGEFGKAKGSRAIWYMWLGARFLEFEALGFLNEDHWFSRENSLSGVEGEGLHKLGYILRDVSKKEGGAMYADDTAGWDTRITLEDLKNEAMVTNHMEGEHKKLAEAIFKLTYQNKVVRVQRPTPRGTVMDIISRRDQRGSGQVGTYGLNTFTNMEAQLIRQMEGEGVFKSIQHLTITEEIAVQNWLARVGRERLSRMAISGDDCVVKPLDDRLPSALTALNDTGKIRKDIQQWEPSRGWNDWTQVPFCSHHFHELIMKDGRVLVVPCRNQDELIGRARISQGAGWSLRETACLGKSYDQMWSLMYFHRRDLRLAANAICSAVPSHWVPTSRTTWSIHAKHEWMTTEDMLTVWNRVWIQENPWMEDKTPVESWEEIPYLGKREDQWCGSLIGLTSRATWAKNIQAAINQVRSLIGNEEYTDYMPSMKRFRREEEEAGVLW

Row | Structure (SMILES) | IC50 [1] | EC50 [2] | AC50 [3] | IC50 [4]
1 | Oc1nc(Nc2ccccc2Cl)cc2ccccc12 | 6.11 µM (active) | 1.99 µM (active) | 9.33 µM (active) | –
2 | O=C(CCN1C(=O)/C(=C\c2ccco2)SC1=S)Nc1ccc(C(=O)O)c(O)c1 | – | – | – | > 100 µM (active)
3 | O=C1C=C(c2c(O)ccc3ccccc23)c2ccccc2C1=O | – | – | – | 5.91 µM (active)
4 | Cc1nc2c(=O)n(C)c(=O)nc-2n(C)n1 | 0.0375 µM (active) | 0.0209 µM (active) | 0.0978 µM (active) | –
